Measured values published in patent US20130149721A1, “Methods for Inhibiting Amyloid Precursor Protein and Beta-Amyloid Production and Accumulation” (WISCONSIN ALUMNI RESEARCH FOUNDATION, priority 2008, published 2013).
Marks after values point to notes of the source that are not given here.

What was measured:
[1] = tested on: APP levels in WT and Fmr-1 KO SN; test: Western blot of steady-state APP levels in synaptoneurosomes; assay type: cell-based, mouse
Procedure: FIG. 3 is a result from western blot analysis illustrating differential regulation of APP levels in WT and KO SN. Western blots of WT (top panel) and KO (bottom panel) SN treated in the presence or absence of DHPG (at 5, 10 and 20 min of incubation) were probed with anti-APP and anti-β-actin (control) antibodies.
Western blot analysis. Aliquots of SNs were collected at 5, 10, and 20 min after DHPG treatment, quenched with an equal volume of 2×SDS sample buffer (8% SDS, 24% glycerol, 100 mM Tris (pH 6.8), 4% β-mercaptoethanol, 0.02% bromophenol blue, 2% Triton X-100, 2% deoxycholate, 2% NP-40 alternative, and 2% sarkosyl) and boiled for 5 min prior to analysis by 12% SDS-PAGE. The separated proteins were transferred to a 0.45 μm nitrocellulose membrane in Towbin buffer containing 20% methanol with a Criterion Blotter (Bio-Rad, http://www.bio-rad.com; 100 V, 4° C., 75 min). The membranes were blocked in 5% nonfat dry milk and hybridized with anti-rabbit APP antibody (dilution, 1 μg/ml) and anti-mouse β-actin antibody (dilution, 1:20,000) followed by hybridization with anti-rabbit or anti-mouse HRP-conjugated secondary antibodies (dilution, 1:2000). […]
In order to assess changes in steady-state APP levels, rather than new protein synthesis, APP was measured in WT and Fmr-1 KO SN in response to DHPG by western blot analysis (FIG. 3). […]

[2] = tested on: PTZ-induced seizures in WT, Fmr-1 KO, Tg2576 and FRAXAD mice; test: PTZ seizure induction after MPEP pre-treatment; assay type: in vivo, mouse; settings: 30 mg/kg MPEP I.P. 30 min prior to PTZ
Procedure: To assess the impact of mGluR5 inhibition on seizure phenotypes, Frm-1 KO, Tg2576, and FRAXAD mice were treated with mGluR5 antagonist, MPEP. Tg2576, FRAXAD and littermate controls were treated with 30 mg/kg MPEP (via I.P. injections) 30 min prior to seizure induction with PTZ. The experimental results presented in Table 2 support MPEP's effect as an anti-convulsant in both WT and Fmr-1 KO mice. WT male mice reach a grade 3 seizure, fully developed minimal seizure with clonus of the head muscles and forelimbs, at a rate of 50% in response to 50 mg/kg PTZ, but only 20% achieve a grade 3 seizure with MPEP treatment 30 min prior to PTZ (statistically significant, χ^2 test, p<0.0005). Likewise, there was a reduction from 11% to 0%, 46% to 25%, and 40% to 33% in WT females, Fmr-1 KO males and Fmr-1 KO females, respectively when tested using the seizure induction assay.

SMILES | increase in total APP levels ([1]; Fmr-1 KO SN, DHPG) | increase in total APP levels ([1]; WT SN, within 5 min of DHPG, n=3) [fold] | MPEP + PTZ % death ([2]; FMR-1 KO female) [%] | MPEP + PTZ % grade 3 ([2]; FMR-1 KO female) [%] | MPEP + PTZ % death ([2]; FMR-1 KO male) [%] | MPEP + PTZ % grade 3 ([2]; FMR-1 KO male, 30 mg/kg) [%] | MPEP + PTZ % death ([2]; FRAXAD female) | MPEP + PTZ % grade 3 ([2]; FRAXAD female) [%] | MPEP + PTZ % death ([2]; FRAXAD male) | MPEP + PTZ % grade 3 ([2]; FRAXAD male) [%] | MPEP + PTZ % death ([2]; Tg2576 female) | MPEP + PTZ % grade 3 ([2]; Tg2576 female) [%] | MPEP + PTZ % death ([2]; Tg2576 male) [%] | MPEP + PTZ % grade 3 ([2]; Tg2576 male) [%] | MPEP + PTZ % death ([2]; WT female) [%] | MPEP + PTZ % grade 3 ([2]; WT female, 30 mg/kg) [%] | MPEP + PTZ % death ([2]; WT male) [%] | MPEP + PTZ % grade 3 ([2]; WT male, 30 mg/kg) [%]
N[C@@H](C(=O)O)c1cc(O)cc(O)c1 (racemic) [DHPG, (R,S)-3,5-dihydroxyphenylglycine] | completely absent | 1.6 | – | – | – | – | – | – | – | – | – | – | – | – | – | – | – | –
Cc1cccc(C#Cc2ccccc2)n1 [MPEP, 2-methyl-6-(phenylethynyl)pyridine] | – | – | 0 | 33 | 0 | 25 | 40* % | 100 | 60* % | 80 | 50* % | 75 | 75 | 100 | 0 | 0 | 0 | 20
